Experimental data taken from BindingDB's records for doi:10.1002/cbic.201300197 (Nankai University, 2013).

How the values were obtained:
Alpha-galactosidase = Alpha-galactosidase (Coffea arabica, UniProt Q42656); assay: Inhibition Assay Against Commercial Glycosidases; settings: 37 °C
Protocol: (§1) In a 96-well plates, 10µL of commercial enzyme solutions without (control) or with 20µL of inhibitor were incubated at 37°C for 5 min. After addition of 20µL of substrate solution, incubations were prolonged for different time periods: 10 min for β-glucosidase (almond), 5 min for α-glucosidase (saccharomyces cerevisiae) and 8 min for β-galactosidase (bovine liver) and α-galactosidase (green coffee beans) and stopped by addition of 150µL of glycine/NaOH buffer (100mM, pH 10.6). The amount of 4-MU formed was determined at 355nm (excitation) and 460nm (emission). For β-glucosidase (almond), the activity was determined with 4-MU-β-D-Glu (1mM) in sodium acetate buffer (100 mM, pH 5.2). For α-glucosidase (saccharomyces cerevisiae), the activity was determined with4-methylumbelliferyl-α-D-glucopyranoside (4-MU-α-D-Glu, 1 mM) in sodium phosphate buffer (100 mM, pH 7.2). For β-galactosidase (bovine liver), the activity was determined with 4-me

Alpha-glucosidase MAL12 = Alpha-glucosidase MAL12 (Saccharomyces cerevisiae (strain ATCC 204508 / S288c), UniProt P53341); assay: Inhibition Assay Against Commercial Glycosidases; settings: 37 °C
Protocol: as §1

Prunasin hydrolase = biological target: T1, Prunasin hydrolase (Prunus dulcis, UniProt H9ZGE1); assay: Inhibition Assay Against Commercial Glycosidases; settings: 37 °C
T1 sequence (H9ZGE1 whole entry): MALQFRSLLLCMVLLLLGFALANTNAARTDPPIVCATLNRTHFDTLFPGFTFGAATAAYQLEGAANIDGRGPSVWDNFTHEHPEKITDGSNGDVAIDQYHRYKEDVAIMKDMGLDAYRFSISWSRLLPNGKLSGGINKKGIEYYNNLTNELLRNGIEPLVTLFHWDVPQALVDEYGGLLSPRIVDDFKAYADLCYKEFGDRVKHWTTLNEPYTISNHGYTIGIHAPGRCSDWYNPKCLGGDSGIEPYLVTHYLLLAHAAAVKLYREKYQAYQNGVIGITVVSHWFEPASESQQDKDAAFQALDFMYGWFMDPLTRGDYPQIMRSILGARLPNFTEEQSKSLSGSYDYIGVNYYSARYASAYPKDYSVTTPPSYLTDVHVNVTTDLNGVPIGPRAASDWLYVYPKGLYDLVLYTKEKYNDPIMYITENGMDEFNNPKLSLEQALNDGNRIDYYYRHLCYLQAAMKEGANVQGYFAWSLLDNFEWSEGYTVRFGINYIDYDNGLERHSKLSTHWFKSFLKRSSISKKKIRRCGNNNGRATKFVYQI
Protocol: as §1

[1] = biological target: T2, Lysosomal acid glucosylceramidase (Homo sapiens, UniProt P04062); assay: GCase IC50 Assay
T2 sequence (P04062 whole entry): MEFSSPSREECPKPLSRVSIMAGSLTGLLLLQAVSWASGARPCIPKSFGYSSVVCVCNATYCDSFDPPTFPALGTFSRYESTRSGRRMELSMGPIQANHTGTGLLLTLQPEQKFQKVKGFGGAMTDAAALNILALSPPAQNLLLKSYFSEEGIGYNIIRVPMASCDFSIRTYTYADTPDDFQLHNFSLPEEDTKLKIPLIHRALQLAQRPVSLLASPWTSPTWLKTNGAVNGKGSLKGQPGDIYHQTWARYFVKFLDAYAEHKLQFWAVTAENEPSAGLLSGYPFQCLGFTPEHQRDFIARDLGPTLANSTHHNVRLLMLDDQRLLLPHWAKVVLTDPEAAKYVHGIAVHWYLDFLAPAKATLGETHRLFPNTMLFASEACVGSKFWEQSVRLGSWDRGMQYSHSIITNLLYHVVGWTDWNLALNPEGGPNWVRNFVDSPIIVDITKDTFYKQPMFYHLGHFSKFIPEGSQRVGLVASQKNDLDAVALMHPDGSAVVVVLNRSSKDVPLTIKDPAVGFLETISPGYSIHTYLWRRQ

Beta-galactosidase = biological target: T3, Beta-galactosidase (Bos taurus, UniProt Q58D55); assay: Inhibition Assay Against Commercial Glycosidases; settings: 37 °C
T3 sequence (Q58D55 whole entry): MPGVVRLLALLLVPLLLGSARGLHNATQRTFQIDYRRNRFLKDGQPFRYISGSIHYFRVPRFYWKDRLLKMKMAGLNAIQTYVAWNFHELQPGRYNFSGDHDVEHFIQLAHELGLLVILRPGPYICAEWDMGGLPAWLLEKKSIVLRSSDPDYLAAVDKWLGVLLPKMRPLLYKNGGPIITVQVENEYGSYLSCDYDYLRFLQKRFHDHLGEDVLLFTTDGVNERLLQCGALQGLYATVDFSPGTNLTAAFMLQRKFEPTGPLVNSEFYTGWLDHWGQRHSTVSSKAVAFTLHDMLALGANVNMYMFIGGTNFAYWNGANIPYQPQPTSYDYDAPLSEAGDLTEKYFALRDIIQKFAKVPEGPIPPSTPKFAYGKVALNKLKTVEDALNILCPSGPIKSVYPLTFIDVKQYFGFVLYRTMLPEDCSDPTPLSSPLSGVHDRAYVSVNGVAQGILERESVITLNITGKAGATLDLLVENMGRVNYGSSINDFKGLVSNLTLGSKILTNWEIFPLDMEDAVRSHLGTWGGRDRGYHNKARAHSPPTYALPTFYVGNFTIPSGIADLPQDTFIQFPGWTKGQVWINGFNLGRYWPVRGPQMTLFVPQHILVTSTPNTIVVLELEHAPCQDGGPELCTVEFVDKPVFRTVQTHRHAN
Protocol: as §1

[2] = biological target: T2, Lysosomal acid glucosylceramidase; assay: GCase Ki Assay; settings: pH 5.2

Sequence of Alpha-galactosidase (Q42656 whole entry): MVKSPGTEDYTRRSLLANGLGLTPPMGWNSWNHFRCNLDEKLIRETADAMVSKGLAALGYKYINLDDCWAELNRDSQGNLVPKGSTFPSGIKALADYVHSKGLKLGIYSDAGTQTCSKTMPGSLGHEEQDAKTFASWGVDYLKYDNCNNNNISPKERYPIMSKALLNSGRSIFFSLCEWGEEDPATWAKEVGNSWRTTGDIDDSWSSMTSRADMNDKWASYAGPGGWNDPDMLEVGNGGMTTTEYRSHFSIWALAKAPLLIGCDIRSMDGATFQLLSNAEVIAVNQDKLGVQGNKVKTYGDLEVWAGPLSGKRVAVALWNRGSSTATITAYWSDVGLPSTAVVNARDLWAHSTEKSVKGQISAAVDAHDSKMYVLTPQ
Sequence of Alpha-glucosidase MAL12 (P53341 whole entry): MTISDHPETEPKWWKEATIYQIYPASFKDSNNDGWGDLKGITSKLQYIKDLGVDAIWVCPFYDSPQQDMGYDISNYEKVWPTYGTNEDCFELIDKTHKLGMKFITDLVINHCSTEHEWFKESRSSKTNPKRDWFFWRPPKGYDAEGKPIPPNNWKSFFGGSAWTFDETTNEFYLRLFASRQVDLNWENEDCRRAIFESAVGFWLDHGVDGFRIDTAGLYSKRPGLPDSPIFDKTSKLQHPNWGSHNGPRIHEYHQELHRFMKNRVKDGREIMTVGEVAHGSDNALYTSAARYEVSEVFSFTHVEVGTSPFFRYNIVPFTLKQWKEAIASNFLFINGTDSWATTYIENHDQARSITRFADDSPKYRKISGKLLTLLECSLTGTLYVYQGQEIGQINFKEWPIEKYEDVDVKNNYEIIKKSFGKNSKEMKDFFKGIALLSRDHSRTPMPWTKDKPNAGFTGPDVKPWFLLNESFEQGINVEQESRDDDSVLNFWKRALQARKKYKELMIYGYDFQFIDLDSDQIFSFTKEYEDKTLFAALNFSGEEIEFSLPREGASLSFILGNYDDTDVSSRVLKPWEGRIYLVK

SMILES | IC50 (Alpha-galactosidase) [nM] | IC50 (Alpha-glucosidase MAL12) [nM] | IC50 (Prunasin hydrolase) [nM] | IC50 ([1]; pH 5.2) [nM] | IC50 ([1]; pH 7) [nM] | IC50 (Beta-galactosidase) [nM] | Ki [2] [nM]
CC(C)(C)CCc1cn2c(n1)C(O)C(O)C(O)C2CO (centres undefined) [2-(3,3-dimethylbutyl)-5-(hydroxymethyl)-5H,6H,7H,8H-imidazo[1,2-a]pyridine-6,7,8-triol (Compound 3)] | 12800 | 3420 | 79 | 5.34 | 4.26 | 350 | 5.34
Cc1ccc(CCCc2cn3c(n2)C(O)C(O)C(O)C3CO)cc1 (centres undefined) [5-(hydroxymethyl)-2-[3-(4-methylphenyl)propyl]-5H,6H,7H,8H-imidazo[1,2-a]pyridine-6,7,8-triol (Compound 5)] | 4480 | 280 | 42 | 5.44 | 4.73 | 100 | 1.46
OCC1C(O)C(O)C(O)c2nc(CCCc3ccc(-c4ccccc4)cc3)cn21 (centres undefined) [5-(hydroxymethyl)-2-[3-(4-phenylphenyl)propyl]-5H,6H,7H,8H-imidazo[1,2-a]pyridine-6,7,8-triol (Compound 7)] | 1660 | 6 | 42 | 5.27 | 5.11 | – | 3.62
CCCCCCCCc1cn2c(n1)C(O)C(O)C(O)C2CO (centres undefined) [5-(hydroxymethyl)-2-octyl-5H,6H,7H,8H-imidazo[1,2-a]pyridine-6,7,8-triol (Compound 4)] | 12500 | 970 | 117 | 8.39 | 5.05 | 37 | 5.38
OCC1C(O)C(O)C(O)c2nccn21 (centres undefined) [5-(hydroxymethyl)-5H,6H,7H,8H-imidazo[1,2-a]pyridine-6,7,8-triol (Compound 1)] | 7290 | 98500 | 220 | 91.6 | 79.2 | 230 | 33.1
O=C(CCCc1cn2c(n1)C(O)C(O)C(O)C2CO)Nc1ccccc1 (centres undefined) [N-phenyl-4-[6,7,8-trihydroxy-5-(hydroxymethyl)-5H,6H,7H,8H-imidazo[1,2-a]pyridin-2-yl]butanamide (Compound 10)] | 1480 | 1050 | 140 | 6.96 | 7.67 | 11800 | 4.18

Now from value to molecule:

IC50 (Alpha-galactosidase) [nM] | IC50 (Alpha-glucosidase MAL12) [nM] | IC50 (Prunasin hydrolase) [nM] | IC50 ([1]; pH 5.2) [nM] | IC50 ([1]; pH 7) [nM] | IC50 (Beta-galactosidase) [nM] | Ki [2] [nM] | SMILES
9490 | > 100000 | 95900 | – | – | – | – | CCCCCCCCCN1C[C@H](O)[C@@H](O)[C@H](O)[C@H]1CO
4710 | 12800 | 910 | 12 | 11.5 | 7830 | 18.9 | CC(C)(CCCc1cn2c(n1)C(O)C(O)C(O)C2CO)C(=O)Nc1ccccc1 (centres undefined) [2,2-dimethyl-N-phenyl-5-[6,7,8-trihydroxy-5-(hydroxymethyl)-5H,6H,7H,8H-imidazo[1,2-a]pyridin-2-yl]pentanamide (Compound 11)]
11400 | 52 | 4 | 8.42 | 7.8 | 1 | 1.93 | OCC1C(O)C(O)C(O)c2nc(CCCc3ccc(C4CCCCC4)cc3)cn21 (centres undefined) [2-[3-(4-cyclohexylphenyl)propyl]-5-(hydroxymethyl)-5H,6H,7H,8H-imidazo[1,2-a]pyridine-6,7,8-triol (Compound 8)]
3750 | 730 | 31 | 6.23 | 4.75 | 230 | 3.48 | OCC1C(O)C(O)C(O)c2nc(CCCc3ccc(F)cc3)cn21 (centres undefined) [2-[3-(4-fluorophenyl)propyl]-5-(hydroxymethyl)-5H,6H,7H,8H-imidazo[1,2-a]pyridine-6,7,8-triol (Compound 9)]
16100 | 570 | 58 | 3.71 | 2.04 | 190 | 3.19 | OCC1C(O)C(O)C(O)c2nc(CCc3ccccc3)cn21 (centres undefined) [5-(hydroxymethyl)-2-(2-phenylethyl)-5H,6H,7H,8H-imidazo[1,2-a]pyridine-6,7,8-triol (Compound 2)]
4900 | 300 | 78 | 2.97 | 3.62 | 92 | 1.17 | COc1ccc(CCCc2cn3c(n2)C(O)C(O)C(O)C3CO)cc1 (centres undefined) [5-(hydroxymethyl)-2-[3-(4-methoxyphenyl)propyl]-5H,6H,7H,8H-imidazo[1,2-a]pyridine-6,7,8-triol (Compound 6)]
